Activity calls are given as the source filed them.
Assays:
Mu-type opioid receptor = Mu-type opioid receptor (Homo sapiens, UniProt P35372); format: functional, cell-based;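 further: U2OS cells with beta-arrestin recruitment to OPRM1 by beta-gal complementation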
[1] = target: 5-hydroxytryptamine receptor 2A (Mus musculus, UniProt P35363); format: functional, cell-based;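 further: CHO-K1 cells with tagged receptor and beta-arrestin; agonist potency measured as compound-induced activation of the receptor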
5-hydroxytryptamine receptor 2A, sequence (P35363 whole entry): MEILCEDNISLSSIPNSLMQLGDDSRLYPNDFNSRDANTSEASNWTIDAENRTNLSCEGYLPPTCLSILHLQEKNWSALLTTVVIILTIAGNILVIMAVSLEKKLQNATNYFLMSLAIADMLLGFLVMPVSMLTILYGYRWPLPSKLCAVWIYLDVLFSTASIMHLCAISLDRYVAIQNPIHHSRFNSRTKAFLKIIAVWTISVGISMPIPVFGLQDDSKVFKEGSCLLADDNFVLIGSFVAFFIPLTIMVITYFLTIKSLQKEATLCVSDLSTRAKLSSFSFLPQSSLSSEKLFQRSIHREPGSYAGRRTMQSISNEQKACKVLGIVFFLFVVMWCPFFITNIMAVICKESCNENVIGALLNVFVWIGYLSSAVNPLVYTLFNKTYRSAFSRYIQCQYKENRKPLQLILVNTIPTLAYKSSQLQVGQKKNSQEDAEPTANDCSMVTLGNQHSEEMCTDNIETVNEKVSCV

[2] = Luminescence Cell-Based Dose Retest to Confirm Inhibitors of Cancer Stem Cells. [Related pubchem assays (depositor defined):AID2717, AID2721]; format: functional; details: Homo sapiens
INS1 = assay: beta cell apoptosis inhibitors, cytokine rescue, dose response, luminescence, retest (AID 449756); format: functional, cell-based; details: Rattus norvegicus;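 further: cell death triggered by IL-1 beta plus TNF-alpha plus IFN-gamma mixture; protective hits raise ATP signal compared with cytokine alone wells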
[3] = miR-122 activators in hepatoma reporter cells, dose response, cell-based, Huh7 psiCHECK-miR122, Renilla luciferase, cherry-picked (AID 651956); format: functional;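 further: huh7 hepatoma cells stably carrying a psiCHECK-2 miR-122 sensor plasmid; renilla luciferase signal reporting endogenous miR-122 activity after 48 h compound exposure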
[4] = HEK293T cell cytotoxicity, dose response, cytotoxicity control for HIV Vif inhibitor project, cherry-picks (AID 652208); format: functional, cell-based
[5] = HEK293T cytotoxicity, dose response, cytotoxicity control for miR-122 modulator project, cell-based, activator set, cherry-pick (AID 720690); format: functional;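 further: HEK293T human cells scored for general mammalian cytotoxicity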
[6] = HEK293T cell cytotoxicity, dose response, cytotoxicity control, CellTiter-Glo luminescence, dry powder, set 6 (AID 651949); format: functional, cell-based; details: HEK293
[7] = Inhibition of T. cruzi Tulahuen strain amastigotes in L-6 muscle cells Measured in Cell-Based and Microorganism Combination System Using Plate Reader - 2138-03_Inhibitor_Dose_CherryPick_Activity.; format: functional; details: Rattus norvegicus, L6
[8] = cytotoxicity in L-6 rat myocytes, dose response, cytotoxicity control, cell-based, plate reader, cherry-pick (AID 651896); format: functional
[9] = Inhibition of Plasmodium falciparum NF54 Measured in Cell-Based System Using Plate Reader - 2138-11_Inhibitor_Dose_CherryPick_Activity.; format: functional
[10] = L. donovani amastigote growth inhibition, dose response, axenic amastigotes, plate reader, cherry pick (AID 651891); format: functional, cell-based; details: Leishmania donovani
[11] = intracellular Trypanosoma cruzi inhibitors in host cells – cell-based, plate reader, cherry-pick samples, set 3, dose response (AID 651818); format: functional;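 further: compounds incubated with infected cells for about four days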
[12] = T. b. rhodesiense proliferation inhibition, dose response, STIB900 strain, plate reader, cherry pick (AID 651893); format: functional, cell-based; details: Trypanosoma brucei
Paired box protein Pax-8 = Paired box protein Pax-8 (Homo sapiens, UniProt Q06710); assay: inhibitors of PAX8-driven TPO luciferase reporter, dose response, RMG-I cells, cherry-pick (AID 687027); format: functional, cell-based;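 further: luciferase reporter driven by Pax8 target thyroperoxidase promoter measured by SteadyGlo luminescence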
Paired box protein Pax-8, sequence (Q06710 whole entry): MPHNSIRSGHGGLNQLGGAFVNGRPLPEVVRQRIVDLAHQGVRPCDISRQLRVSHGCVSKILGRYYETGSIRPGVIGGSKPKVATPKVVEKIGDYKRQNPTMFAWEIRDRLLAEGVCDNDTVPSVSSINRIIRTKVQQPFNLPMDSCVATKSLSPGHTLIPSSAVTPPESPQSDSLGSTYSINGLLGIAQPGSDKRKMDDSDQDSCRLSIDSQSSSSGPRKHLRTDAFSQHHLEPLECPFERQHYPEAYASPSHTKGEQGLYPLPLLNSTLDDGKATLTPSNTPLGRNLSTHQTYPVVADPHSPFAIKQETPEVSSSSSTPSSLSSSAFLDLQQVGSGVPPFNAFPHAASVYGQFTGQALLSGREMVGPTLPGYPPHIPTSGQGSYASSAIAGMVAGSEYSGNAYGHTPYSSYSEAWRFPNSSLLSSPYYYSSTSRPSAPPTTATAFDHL

[13] = IOSE-T80 ovarian epithelial cell cytotoxicity, dose response, cytotoxicity control for PAX8 inhibitor project, plate reader, dry powder samples (AID 743045); format: functional, cell-based
[14] = A2780 ovarian cancer cell cytotoxicity, dose response, cytotoxicity control, plate reader, dry powder samples (AID 743046); format: functional, cell-based
[15] = NIH:OVCAR-3 ovarian cancer cell cytotoxicity, dose response, PAX8 inhibitor project, plate reader, dry powder samples (AID 743044); format: functional, cell-based
[16] = cytotoxicity in OVCAR8 ovarian cancer cells, dose response, PAX8 project, cell-based, plate reader, dry powder samples (AID 743197); format: functional; details: OVCAR-8
[17] = inhibitors of CMV-promoter luciferase reporter, dose response, counter-screen for Pax8 inhibitor project, cell-based, HEK293, luminescence, dry powder (AID 743020); format: functional
[18] = IGROV1 ovarian cancer cell cytotoxicity, dose response, PAX8 inhibitor project, plate reader, dry powder samples (AID 743043); format: functional, cell-based; details: IGROV-1
[19] = non-specific cell cytotoxicity, dose response, cytotoxicity control for PAX8 inhibitor project, plate reader, dry powder samples (AID 743021); format: functional, cell-based
[20] = target: NAD-dependent protein deacylase sirtuin-5, mitochondrial (Homo sapiens, UniProt Q9NXA8); assay: SIRT5 deacylase inhibitors, dose response, biochemical, fluorescence imaging, cherry-pick, set 6 (AID 720597)
NAD-dependent protein deacylase sirtuin-5, mitochondrial, sequence (Q9NXA8 whole entry): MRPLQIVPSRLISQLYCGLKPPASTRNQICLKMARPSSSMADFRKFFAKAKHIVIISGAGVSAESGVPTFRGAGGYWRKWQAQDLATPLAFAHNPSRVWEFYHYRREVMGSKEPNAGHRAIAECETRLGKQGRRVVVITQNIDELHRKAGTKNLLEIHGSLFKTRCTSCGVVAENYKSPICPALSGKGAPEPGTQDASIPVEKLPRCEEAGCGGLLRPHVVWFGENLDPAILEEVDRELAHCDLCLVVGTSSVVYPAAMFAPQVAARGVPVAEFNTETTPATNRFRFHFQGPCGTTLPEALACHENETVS

Kallikrein-7 = Kallikrein-7 (Homo sapiens, UniProt P49862); assay: Fluorescence Intensity-based biochemical primary high throughput dose response assay to identify activators of kallikrein-7 (K7) zymogen.
Kallikrein-7, sequence (P49862 whole entry): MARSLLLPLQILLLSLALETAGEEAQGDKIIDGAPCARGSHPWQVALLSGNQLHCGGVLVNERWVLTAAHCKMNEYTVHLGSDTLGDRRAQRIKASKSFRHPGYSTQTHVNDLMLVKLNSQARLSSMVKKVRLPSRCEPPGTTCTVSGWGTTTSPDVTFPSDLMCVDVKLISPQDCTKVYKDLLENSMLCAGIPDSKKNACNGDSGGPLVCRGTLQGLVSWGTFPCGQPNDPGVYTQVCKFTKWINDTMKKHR

[21] = inhibitors of non-replicating M. tuberculosis, dose response, luciferase, dry powder (AID 651619); format: functional; details: Mycobacterium tuberculosis
[22] = inhibitors of non-replicating M. tuberculosis, dose response, luciferase, dry powder (AID 651620); format: functional; details: Mycobacterium tuberculosis
Lethal factor = Lethal factor (Bacillus anthracis, UniProt P15917); assay: High-throughput multiplex microsphere dose response for inhibitors of toxin protease, specifically Lethal Factor protease, compounds from Cherry Pick 02.; format: functional; details: read-out: EC50_MICROM
Lethal factor, sequence (P15917 whole entry): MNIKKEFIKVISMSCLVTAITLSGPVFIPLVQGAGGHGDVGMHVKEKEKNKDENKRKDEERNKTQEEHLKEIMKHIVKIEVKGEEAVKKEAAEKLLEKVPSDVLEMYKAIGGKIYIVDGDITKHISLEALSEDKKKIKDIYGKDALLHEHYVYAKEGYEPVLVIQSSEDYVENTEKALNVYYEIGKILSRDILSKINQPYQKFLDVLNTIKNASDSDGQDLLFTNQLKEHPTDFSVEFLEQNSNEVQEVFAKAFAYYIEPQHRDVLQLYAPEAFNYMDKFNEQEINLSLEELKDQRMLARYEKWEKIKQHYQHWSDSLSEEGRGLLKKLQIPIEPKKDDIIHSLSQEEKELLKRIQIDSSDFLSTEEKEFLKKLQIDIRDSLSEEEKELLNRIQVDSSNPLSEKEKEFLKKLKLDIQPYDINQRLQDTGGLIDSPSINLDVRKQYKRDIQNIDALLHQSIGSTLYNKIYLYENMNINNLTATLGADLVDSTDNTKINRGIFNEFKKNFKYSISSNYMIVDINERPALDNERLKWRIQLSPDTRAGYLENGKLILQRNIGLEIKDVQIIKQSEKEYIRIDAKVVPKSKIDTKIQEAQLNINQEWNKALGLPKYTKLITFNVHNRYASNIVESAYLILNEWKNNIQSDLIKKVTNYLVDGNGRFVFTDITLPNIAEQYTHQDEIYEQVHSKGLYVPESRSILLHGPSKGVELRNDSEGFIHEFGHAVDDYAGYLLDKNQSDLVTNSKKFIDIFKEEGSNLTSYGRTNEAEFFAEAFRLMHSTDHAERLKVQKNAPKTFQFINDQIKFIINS

[23] = target: Botulinum neurotoxin type F (Clostridium botulinum, UniProt P30996); assay: High-throughput multiplex microsphere dose response for inhibitors of toxin protease, specifically Botulinum neurotoxin light chain F protease, compounds from Cherry Pick 02.; format: functional; details: read-out: EC50_MICROM
Botulinum neurotoxin type F, sequence (P30996 1-436 limits assumed): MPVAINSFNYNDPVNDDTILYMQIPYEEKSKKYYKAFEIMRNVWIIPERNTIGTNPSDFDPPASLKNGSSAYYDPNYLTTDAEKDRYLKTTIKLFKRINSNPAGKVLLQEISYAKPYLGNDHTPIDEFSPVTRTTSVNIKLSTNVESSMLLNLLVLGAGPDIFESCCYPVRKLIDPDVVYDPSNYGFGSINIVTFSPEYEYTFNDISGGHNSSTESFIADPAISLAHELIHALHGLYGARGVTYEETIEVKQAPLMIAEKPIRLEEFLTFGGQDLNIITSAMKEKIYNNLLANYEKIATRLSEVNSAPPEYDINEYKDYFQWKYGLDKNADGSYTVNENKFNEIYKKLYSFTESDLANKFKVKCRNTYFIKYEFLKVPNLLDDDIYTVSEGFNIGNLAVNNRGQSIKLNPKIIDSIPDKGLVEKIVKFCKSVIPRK

Mu-type opioid receptor, sequence (P35372 whole entry): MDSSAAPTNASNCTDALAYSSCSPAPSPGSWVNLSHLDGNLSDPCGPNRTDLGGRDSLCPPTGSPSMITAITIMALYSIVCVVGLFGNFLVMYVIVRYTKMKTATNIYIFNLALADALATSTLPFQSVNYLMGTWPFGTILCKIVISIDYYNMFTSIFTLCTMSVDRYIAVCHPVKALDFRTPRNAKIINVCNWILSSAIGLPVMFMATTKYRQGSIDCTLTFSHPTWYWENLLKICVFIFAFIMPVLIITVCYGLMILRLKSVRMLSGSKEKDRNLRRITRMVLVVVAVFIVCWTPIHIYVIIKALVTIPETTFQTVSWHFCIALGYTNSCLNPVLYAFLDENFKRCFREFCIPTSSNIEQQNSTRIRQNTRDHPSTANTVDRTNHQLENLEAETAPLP

FC(F)(F)c1cccc(CN2CCN(c3ncccn3)CC2)c1
EC50 (Mu-type opioid receptor): 92.4 µM (inactive) | EC50 [1]: 4.16 µM (active)

COc1ccc(-c2cc(-c3nc4ccccn4c3NCc3ccccc3)ccc2OC)cc1
AC50 [2]: 5.24 µM (active) | AC50 (INS1): 1.33 µM (active) | AC50 [3]: 8.74 µM (active) | AC50 [4]: 1.69 µM (active) | AC50 [5]: 3.12 µM (active)

c1ccc(CSc2nnc(C3CCCC3)o2)cc1
AC50 [6]: > 52 µM (inactive)

COc1ccc(CN(C)C[C@H]2Oc3c(NC(=O)c4ccncc4)cccc3C(=O)N([C@H](C)CO)C[C@@H]2C)cc1
IC50 [7]: 7.39 µM (inactive) | IC50 [8]: > 100 µM (inactive) | IC50 [9]: 7.39 µM (inactive) | IC50 [10]: > 100 µM (inactive) | AC50 [11]: 0.206 µM (active) | IC50 [12]: 20.2 µM (inactive)

C[C@H]1CCCCO[C@H](CN(C)C(=O)Nc2ccc(C(F)(F)F)cc2)[C@@H](C)CN([C@@H](C)CO)C(=O)c2cc(NC(=O)Nc3ccc(F)cc3)ccc2O1
AC50 (Paired box protein Pax-8): 3.62 µM (active) | AC50 [13]: 50.8 µM (active) | AC50 [14]: 52.4 µM (active) | AC50 [15]: 11.2 µM (active) | AC50 [16]: 23.7 µM (active)

C[C@@H]1CN([C@H](C)CO)C(=O)c2cc(NS(=O)(=O)c3ccccc3)ccc2O[C@@H](C)CCCCO[C@@H]1CN(C)Cc1ccc(C(F)(F)F)cc1
AC50 (Paired box protein Pax-8): 5.74 µM (active) | AC50 [14]: 34.8 µM (active) | AC50 [17]: 65.4 µM (active) | AC50 [15]: 27.4 µM (active) | AC50 [18]: 35.4 µM (active) | AC50 [19]: 49 µM (active) | AC50 [16]: 39 µM (active)

CCCNC(=O)N1[C@@H](CO)[C@H](c2ccccc2)C12CN(C(=O)CC1CC1)C2
AC50 [20]: 24.6 µM (active)

COc1ccc2ccccc2c1C=NNC(=O)c1cc(-c2ccc(C)c(C)c2)[nH]n1
EC50 (Kallikrein-7): > 2.57 µM (active)

c1ccc(Cn2cc(CSc3nnc(-c4ccccc4)o3)nn2)cc1
IC90 [21]: 2 µM (active) | IC90 [22]: 2 µM (active)

O=C(COC(=O)c1cncc(Br)c1)NC12CC3CC(CC(C3)C1)C2
EC50 (Lethal factor): 11.5 µM (active) | EC50 [23]: > 20 µM (inactive)
